Patent US9145392B2, “Imidazole amines as modulators of kinase activity” (Merck Patent GmbH, priority 2011, dated 2015)

Assays:
[1] = molecular target: P70S6K (T412E mutant) (Homo sapiens (Human), UniProt P23443, T412E); assay: P70S6K enzyme assay; format: biochemical; conditions: read-out: IC50 p70S6K
In short: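 Phosphorylated product and substrate peptide separated by microfluidic capillary electrophoresis (Caliper LabChip 3000), product peaks resolving before substrate.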

[2] = molecular target: His-AKT (Full Length) (Homo sapiens (Human), UniProt P31749); assay: AKT enzyme assay; format: biochemical; conditions: read-out: IC50 AKT
Chain of His-AKT (Full Length) (P31749 whole entry): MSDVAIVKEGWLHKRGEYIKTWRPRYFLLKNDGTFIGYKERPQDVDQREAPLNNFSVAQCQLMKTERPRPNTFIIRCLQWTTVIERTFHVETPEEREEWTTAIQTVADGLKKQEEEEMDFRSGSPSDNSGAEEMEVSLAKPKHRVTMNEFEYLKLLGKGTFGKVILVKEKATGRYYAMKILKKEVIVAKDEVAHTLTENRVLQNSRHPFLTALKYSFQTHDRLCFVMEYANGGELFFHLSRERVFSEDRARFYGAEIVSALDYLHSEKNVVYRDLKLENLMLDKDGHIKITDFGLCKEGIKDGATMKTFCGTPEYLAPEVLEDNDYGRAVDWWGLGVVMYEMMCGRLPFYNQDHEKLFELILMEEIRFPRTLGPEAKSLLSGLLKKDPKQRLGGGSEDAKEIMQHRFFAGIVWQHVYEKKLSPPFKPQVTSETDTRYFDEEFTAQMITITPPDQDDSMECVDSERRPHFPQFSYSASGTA

Chain of P70S6K (T412E mutant) (P23443 whole entry T412E): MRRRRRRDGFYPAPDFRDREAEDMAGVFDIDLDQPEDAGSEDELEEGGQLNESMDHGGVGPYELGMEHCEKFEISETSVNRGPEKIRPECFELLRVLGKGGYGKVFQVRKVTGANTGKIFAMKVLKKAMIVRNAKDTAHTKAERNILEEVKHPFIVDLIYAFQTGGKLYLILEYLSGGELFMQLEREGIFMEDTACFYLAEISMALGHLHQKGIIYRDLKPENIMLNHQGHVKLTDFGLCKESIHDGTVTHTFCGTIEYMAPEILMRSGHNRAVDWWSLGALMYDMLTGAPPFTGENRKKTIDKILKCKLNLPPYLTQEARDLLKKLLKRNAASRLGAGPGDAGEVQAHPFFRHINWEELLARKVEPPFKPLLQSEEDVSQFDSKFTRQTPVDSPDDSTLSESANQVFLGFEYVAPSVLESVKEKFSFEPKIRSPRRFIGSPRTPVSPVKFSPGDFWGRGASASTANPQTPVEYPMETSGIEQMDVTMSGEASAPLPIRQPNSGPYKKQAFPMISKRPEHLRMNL

Row | IC50 [1] | IC50 [2] | SMILES
1 | 2.2 nM | 2.7 nM | CC(C)N(C)CCn1cc(-c2ccc(F)c(C(F)(F)F)c2)nc1C1CCN(c2ncnc(N)c2C#N)CC1 [Compound 360, 4-Amino-6-(4-{4-(4-fluoro-3-trifluoromethyl-phenyl)-1-[2-(isopropyl-methyl-amino)-ethyl]-1H-imidazol-2-yl}-piperidin-1-yl)-pyrimidine-5-carbonitrile]
2 | 6.4 nM | 11 nM | CC(C)N(C)CCn1cc(-c2ccc(F)c(C(F)(F)F)c2)nc1C1CCN(c2ncnc(N)c2C(N)=O)CC1 [Compound 361, 4-Amino-6-(4-{4-(4-fluoro-3-trifluoromethyl-phenyl)-1-[2-(isopropyl-methyl-amino)-ethyl]-1H-imidazol-2-yl}-piperidin-1-yl)-pyrimidine-5-carboxylic acid amide]
3 | 4.1 nM | 76 nM | CN(C)CCN(C)CCn1cc(-c2ccc(F)c(C(F)(F)F)c2)nc1C1CCN(c2ncnc(N)c2C#N)CC1 [Compound 362, 4-Amino-6-{4-[1-{2-[(2-dimethylamino-ethyl)-methyl-amino]-ethyl}-4-(4-fluoro-3-trifluoromethyl-phenyl)-1H-imidazol-2-yl]-piperidin-1-yl}-pyrimidine-5-carbonitrile]
4 | 3.4 nM | 26 nM | COCCN(C)CCn1cc(-c2ccc(F)c(C(F)(F)F)c2)nc1C1CCN(c2ncnc(N)c2C#N)CC1 [Compound 363, 4-Amino-6-[4-(4-(4-fluoro-3-trifluoromethyl-phenyl)-1-{2-[(2-methoxy-ethyl)-methyl-amino]-ethyl}-1H-imidazol-2-yl)-piperidin-1-yl]-pyrimidine-5-carbonitrile]
5 | 1.4 nM | 2.5 nM | COCCNCCn1cc(-c2ccc(F)c(C(F)(F)F)c2)nc1C1CCN(c2ncnc(N)c2C#N)CC1 [Compound 364, 4-Amino-6-(4-{4-(4-fluoro-3-trifluoromethyl-phenyl)-1-[2-(2-methoxy-ethylamino)-ethyl]-1H-imidazol-2-yl}-piperidin-1-yl)-pyrimidine-5-carbonitrile]
6 | 6.3 nM | 730 nM | CN(C)CCN(C)CCn1cc(-c2ccc(F)c(C(F)(F)F)c2)nc1C1CCN(c2ncnc(N)c2C(N)=O)CC1 [Compound 365, 4-Amino-6-{4-[1-{2-[(2-dimethylamino-ethyl)-methyl-amino]-ethyl}-4-(4-fluoro-3-trifluoromethyl-phenyl)-1H-imidazol-2-yl]-piperidin-1-yl}-pyrimidine-5-carboxylic acid amide]
7 | 9.2 nM | 440 nM | COCCN(C)CCn1cc(-c2ccc(F)c(C(F)(F)F)c2)nc1C1CCN(c2ncnc(N)c2C(N)=O)CC1 [Compound 366, 4-Amino-6-[4-(4-(4-fluoro-3-trifluoromethyl-phenyl)-1-{2-[(2-methoxy-ethyl)-methyl-amino]-ethyl}-1H-imidazol-2-yl)-piperidin-1-yl]-pyrimidine-5-carboxylic acid amide]
8 | 4 nM | 67 nM | COCCNCCn1cc(-c2ccc(F)c(C(F)(F)F)c2)nc1C1CCN(c2ncnc(N)c2C(N)=O)CC1 [Compound 367, 4-Amino-6-(4-{4-(4-fluoro-3-trifluoromethyl-phenyl)-1-[2-(2-methoxy-ethylamino)-ethyl]-1H-imidazol-2-yl}-piperidin-1-yl)-pyrimidine-5-carboxylic acid amide]
9 | 21 nM | 760 nM | CN(CCn1cc(-c2ccc(F)c(C(F)(F)F)c2)nc1C1CCN(c2ncnc(N)c2C(N)=O)CC1)Cc1ccccc1 [Compound 368, 4-Amino-6-{4[1-[2-(benzyl-methyl-amino)-ethyl]-4-(4-fluoro-3-trifluoromethyl-phenyl)-1H-imidazol-2-yl]-piperidin-1-yl}-pyrimidine-5-carboxylic acid amide]
10 | 3.6 nM | 5.4 nM | CC(C)NCCn1cc(-c2ccc(F)c(C(F)(F)F)c2)nc1C1CCN(c2ncnc(N)c2C#N)CC1 [Compound 369, 4-Amino-6-{4-[4-(4-fluoro-3-trifluoromethyl-phenyl)-1-(2-isopropylamino-ethyl)-1H-imidazol-2-yl]-piperidin-1-yl}-pyrimidine-5-carbonitrile]
11 | 0.9 nM | 2.5 nM | CC(C)NCCn1cc(-c2ccc(F)c(C(F)(F)F)c2)nc1C1CCN(c2ncnc(N)c2C(N)=O)CC1 [Compound 370, 4-Amino-6-{4-[4-(4-fluoro-3-trifluoromethyl-phenyl)-1-(2-isopropylamino-ethyl)-1H-imidazol-2-yl]-piperidin-1-yl}-pyrimidine-5-carboxylic acid amide]
12 | 18 nM | 85 nM | COCC(C)NCCn1cc(-c2ccc(F)c(C(F)(F)F)c2)nc1C1CCN(c2ncnc(N)c2C(N)=O)CC1 (centres unmarked) [Compound 371, 4-Amino-6-(4-{4-(4-fluoro-3-trifluoromethyl-phenyl)-1-[2-(2-methoxy-1-methyl-ethylamino)-ethyl]-1H-imidazol-2-yl}-piperidin-1-yl)-pyrimidine-5-carboxylic acid amide]
13 | 0.2 nM | 0.7 nM | CC(C)CNCCn1cc(-c2ccc(F)c(C(F)(F)F)c2)nc1C1CCN(c2ncnc(N)c2C#N)CC1 [Compound 372, 4-Amino-6-{4-[4-(4-fluoro-3-trifluoromethyl-phenyl)-1-(2-isobutylamino-ethyl)-1H-imidazol-2-yl]-piperidin-1-yl}-pyrimidine-5-carbonitrile]
14 | 2.9 nM | 12 nM | CC(C)CNCCn1cc(-c2ccc(F)c(C(F)(F)F)c2)nc1C1CCN(c2ncnc(N)c2C(N)=O)CC1 [Compound 373, 4-Amino-6-{4-[4-(4-fluoro-3-trifluoromethyl-phenyl)-1-(2-isobutylamino-ethyl)-1H-imidazol-2-yl]-piperidin-1-yl}-pyrimidine-5-carboxylic acid amide]
15 | 0.4 nM | 1.5 nM | CNCCn1cc(-c2ccc(F)c(C(F)(F)F)c2)nc1C1CCN(c2ncnc(N)c2C#N)CC1 [Compound 374, 4-Amino-6-{4-[4-(4-fluoro-3-trifluoromethyl-phenyl)-1-(2-methylamino-ethyl)-1H-imidazol-2-yl]-piperidin-1-yl}-pyrimidine-5-carbonitrile]
16 | 1.3 nM | 1.9 nM | CC(C)(C)NCCn1cc(-c2ccc(F)c(C(F)(F)F)c2)nc1C1CCN(c2ncnc(N)c2C#N)CC1 [Compound 375, 4-Amino-6-{4-[1-(2-tert-butylamino-ethyl)-4-(4-fluoro-3-trifluoromethyl-phenyl)-1H-imidazol-2-yl]-piperidin-1-yl}-pyrimidine-5-carbonitrile]
17 | 3.4 nM | 33 nM | CNCCn1cc(-c2ccc(F)c(C(F)(F)F)c2)nc1C1CCN(c2ncnc(N)c2C(N)=O)CC1 [Compound 376, 4-Amino-6-{4-[4-(4-fluoro-3-trifluoromethyl-phenyl)-1-(2-methylamino-ethyl)-1H-imidazol-2-yl]-piperidin-1-yl}-pyrimidine-5-carboxylic acid amide]
18 | 2 nM | 9.7 nM | CC(C)(C)NCCn1cc(-c2ccc(F)c(C(F)(F)F)c2)nc1C1CCN(c2ncnc(N)c2C(N)=O)CC1 [Compound 377, 4-Amino-6-{4-[1-(2-tert-butylamino-ethyl)-4-(4-fluoro-3-trifluoromethyl-phenyl)-1H-imidazol-2-yl]-piperidin-1-yl}-pyrimidine-5-carboxylic acid amide]
19 | 0.8 nM | 2.3 nM | Cc1cc(-c2cn(CCNCC3CC3)c(C3CCN(c4ncnc(N)c4C#N)CC3)n2)ccc1F [Compound 378, 4-Amino-6-{4-[1-[2-(cyclopropylmethyl-amino)-ethyl]-4-(4-fluoro-3-methyl-phenyl)-1H-imidazol-2-yl]-piperidin-1-yl}-pyrimidine-5-carbonitrile]
20 | 0.8 nM | 2.7 nM | Cc1cc(-c2cn(CCN(C)C(C)C)c(C3CCN(c4ncnc(N)c4C#N)CC3)n2)ccc1F [Compound 379, 4-Amino-6-(4-{4-(4-fluoro-3-methyl-phenyl)-1-[2-(isopropyl-methyl-amino)-ethyl]-1H-imidazol-2-yl}-piperidin-1-yl)-pyrimidine-5-carbonitrile]
21 | 1.3 nM | 2.9 nM | Cc1cc(-c2cn(CCNC(C)C)c(C3CCN(c4ncnc(N)c4C#N)CC3)n2)ccc1F [Compound 380, 4-Amino-6-{4-[4-(4-fluoro-3-methyl-phenyl)-1-(2-isopropylamino-ethyl)-1H-imidazol-2-yl]-piperidin-1-yl}-pyrimidine-5-carbonitrile]
22 | 1.1 nM | 0.8 nM | N#Cc1c(N)ncnc1N1CCC(c2nc(-c3ccc(F)c(C(F)(F)F)c3)cn2CCNC2CCCC2)CC1 [Compound 381, 4-Amino-6-{4-[1-(2-cyclopentylamino-ethyl)-4-(4-fluoro-3-trifluoromethyl-phenyl)-1H-imidazol-2-yl]-piperidin-1-yl}-pyrimidine-5-carbonitrile]
23 | 1.7 nM | 4.3 nM | CCC(C)(C)NCCn1cc(-c2ccc(F)c(C(F)(F)F)c2)nc1C1CCN(c2ncnc(N)c2C#N)CC1 [Compound 382, 4-Amino-6-{4-[1-[2-(1,1-dimethyl-propylamino)-ethyl]-4-(4-fluoro-3-trifluoromethyl-phenyl)-1H-imidazol-2-yl]-piperidin-1-yl}-pyrimidine-5-carbonitrile]
24 | 3.3 nM | 8.4 nM | Cc1cc(-c2cn(CCNCC3CC3)c(C3CCN(c4ncnc(N)c4C(N)=O)CC3)n2)ccc1F [Compound 383, 4-Amino-6-{4-[1-[2-(cyclopropylmethyl-amino)-ethyl]-4-(4-fluoro-3-methyl-phenyl)-1H-imidazol-2-yl]-piperidin-1-yl}-pyrimidine-5-carboxylic acid amide]
25 | 1.8 nM | 440 nM | Cc1cc(-c2cn(CCO)c(C3CCN(c4ncnc(N)c4C#N)CC3)n2)ccc1F [Compound 384, 4-Amino-6-{4-[4-(4-fluoro-3-methyl-phenyl)-1-(2-hydroxy-ethyl)-1H-imidazol-2-yl]-piperidin-1-yl}-pyrimidine-5-carbonitrile]
